According to patent US20230095520A1, “PHARMACEUTICAL COMPOSITION FOR PREVENTING OR TREATING CANCER COMPRISING AZOLE DERIVATIVES OR PHARMACEUTICALLY ACCEPTABLE SALT THEREOF” (Yungjin Pharm. Co., Ltd., priority 2020, published 2023):
pIC50: −log10 of the molar value.

Key:
MV-4-11 cells = assay: MV-4-11 cell proliferation inhibition (CCK-8); format: cell-based; conditions: Homo sapiens, 72 hours; for inhibition at 0.1 µM: MV4-11, MV-4-11, compound concentration 100 nM, read-out: Inhibition rate (%); for pIC50: MV4-11, MV-4-11 proliferation
Method: MV-4-11 cells are one of the acute myeloid leukemia cells with a Fms-like tyrosine kinase (FLT3) gene mutation, and these cells are used to test inhibition of proliferation and survival of leukemia cells.
MV-4-11 cells cultured in a 96-well cell culture plate were treated with the compound of the present invention and cultured for 72 hours. Thereafter, the antiproliferative effect of the compound was assayed by the CCK-8 method using a tetrazolium salt.

[1] = molecular target: T1, Recombinant purified human CDK7 (Homo sapiens, UniProt P50613); assay: CDK7 activity inhibition, ADP-Glo kinase assay; format: biochemical; conditions: ATP 90 μM, MBP substrate, 2 hours 30° C.
T1 construct: purchased ThermoFisher PV3868
T1 sequence (P50613 whole entry): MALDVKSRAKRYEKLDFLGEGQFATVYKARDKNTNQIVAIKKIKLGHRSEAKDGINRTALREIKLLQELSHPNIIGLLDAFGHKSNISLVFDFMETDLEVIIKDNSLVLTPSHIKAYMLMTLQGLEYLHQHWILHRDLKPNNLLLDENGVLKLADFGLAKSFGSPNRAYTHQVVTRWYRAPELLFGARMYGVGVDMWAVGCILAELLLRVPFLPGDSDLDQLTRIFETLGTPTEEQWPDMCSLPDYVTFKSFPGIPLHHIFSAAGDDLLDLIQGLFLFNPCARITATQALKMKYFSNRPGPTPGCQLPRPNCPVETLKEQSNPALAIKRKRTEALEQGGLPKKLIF
T1 sequence (P51946 whole entry partner): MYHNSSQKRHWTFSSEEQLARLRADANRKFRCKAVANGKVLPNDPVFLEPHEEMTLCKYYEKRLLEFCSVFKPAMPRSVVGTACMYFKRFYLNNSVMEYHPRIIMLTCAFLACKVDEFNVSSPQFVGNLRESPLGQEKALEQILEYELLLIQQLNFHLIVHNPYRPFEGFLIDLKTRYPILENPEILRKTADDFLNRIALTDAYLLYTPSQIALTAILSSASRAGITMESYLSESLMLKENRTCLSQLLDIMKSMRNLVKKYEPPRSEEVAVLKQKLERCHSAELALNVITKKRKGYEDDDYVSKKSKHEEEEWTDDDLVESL
T1 sequence (P51948 whole entry partner): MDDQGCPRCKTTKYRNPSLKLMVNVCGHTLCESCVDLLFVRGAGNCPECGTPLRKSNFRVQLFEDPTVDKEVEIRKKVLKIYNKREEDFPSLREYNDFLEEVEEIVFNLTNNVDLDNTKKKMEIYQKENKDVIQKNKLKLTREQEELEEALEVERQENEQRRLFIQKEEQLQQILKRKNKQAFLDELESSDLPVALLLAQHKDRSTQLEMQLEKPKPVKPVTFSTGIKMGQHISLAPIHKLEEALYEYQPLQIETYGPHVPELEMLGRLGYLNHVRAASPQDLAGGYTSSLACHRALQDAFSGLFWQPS
Method: Recombinant purified human CDK7 (ThermoFisher, PV3868) and ADP Glo Kinase Assay Kit (Promega, V9102) were used. CDK7 was diluted with 1× kinase reaction buffer (40 mM Tris-Cl, pH 7.5, 20 mM MgCl2, 0.1 mg/ml BSA and 50 μM DTT) and added to a 96 well plate (CDK7 final concentration per reaction: 50 ng). It was finally treated with the compound of the present invention to a 1% DMSO aqueous solution, and a substrate cocktail containing ATP (final concentration of 90 μM) and 0.2 μg/μl MBP (myelin basic protein) in a total of 25 μl reaction mass was added to a 96 well plate, thereby initiating the enzymatic reaction. After 2 hours of incubation (30° C.), an equal volume (25 μl per reaction) of ADP Glo was added and incubated at room temperature for 60 minutes (30° C.). Thereafter, kinase detection reagent (50 μl per reaction) was added and incubated at room temperature for 30 minutes (30° C.). The kinase activity was measured by the chemiluminescence method according to the ADP Glo Kinase Assay Kit instruction manual, and the CDK7 inhibitory activity of the compounds of the present invention was calculated.

| IC50 [1] [nM] | pIC50 (MV-4-11 cells) | Compound | inhibition at 0.1 µM (MV-4-11 cells) [%] |
| --- | --- | --- | --- |
| – | – | C=CC(=O)Nc1ccc(-c2cccc(C(C)C(=O)Nc3ncc(C)s3)c2)cn1 (stereo not shown) [Compound 1, N-(5-(3-(1-((5-methylthiazol-2-yl)amino)-1-oxopropan-2-yl)phenyl)pyridin-2-yl)acrylamide] | 80 |
| 40 | – | C=CC(=O)Nc1ccc(-c2cccc(C(C)C(=O)Nc3ncc(C4CC4)s3)c2)cn1 (stereo not shown) [Compound 2, N-(5-(3-(1-((5-cyclopropylthiazol-2-yl)amino)-1-oxopropan-2-yl)phenyl)pyridin-2-yl)acrylamide] | – |
| – | 7.29 | C=CC(=O)Nc1ccc(-c2cccc(C(C)C(=O)Nc3ncc(CC)s3)c2)cn1 (stereo not shown) [Compound 4, N-(5-(3-(1-((5-ethylthiazol-2-yl)amino)-1-oxopropan-2-yl)phenyl)pyridin-2yl)acrylamide] | 100 |
| – | – | CCc1cnc(NC(=O)[C@@H](C)c2cccc(-c3ccc(NC(=O)/C=C/CN(C)C)nc3)c2)s1 [Compound 17, (S,E)-4-(dimethylamino)-N-(5-(3-(1-((5-ethylthiazol-2-yl)amino)-1-oxopropan-2-yl)phenyl)pyridin-2-yl)but-2-enamide] | 100 |
| – | – | C=CC(=O)Nc1ccc(-c2cccc([C@H](C)C(=O)Nc3ncc(C#N)s3)c2)cn1 [Compound 18, (S)-N-(5-(3-(1-((5-cyanothiazol-2-yl)amino)-1-oxopropan-2-yl)phenyl)pyridin-2-yl)acrylamide] | 67 |
| – | – | C=CC(=O)Nc1ccc(-c2cccc([C@H](CC)C(=O)Nc3ncc(CC)s3)c2)cn1 [Compound 19, (S)-2-(3-(6-acrylamidopyridin-3-yl)phenyl)-N-(5-ethylthiazol-2-yl)butanamide] | 75 |
| – | – | C[C@H](C(=O)Nc1ncc(C#N)s1)c1cccc(-c2ccc(NC(=O)/C=C/CN(C)C)nc2)c1 [Compound 21, (S,E)-N-(5-(3-(1-((5-cyanothiazol-2-yl)amino)-1-oxopropan-2-yl)phenyl)pyridin-2-yl)-4-(dimethylamino)but-2-enamide] | 84 |
| – | – | C=CC(=O)Nc1cnc(-c2cccc([C@H](C)C(=O)Nc3ncc(C#N)s3)c2)cn1 [Compound 25, (S)-N-(5-(3-(1-((5-cyanothiazol-2-yl)amino)-1-oxopropan-2-yl)phenyl)pyrazin-2-yl)acrylamide] | 100 |
| – | – | C=CC(=O)Nc1ccc(-c2cccc([C@H](C)C(=O)Nc3ncc(CC)s3)c2)cc1C#N [Compound 30, (S)-N-(3-cyano-3′-(1-((5-ethylthiazol-2-yl)amino)-1-oxopropan-2-yl)-[1,1′-biphenyl]-4-yl)acrylamide] | 96 |
| – | – | C=CC(=O)Nc1ccc(-c2cccc([C@H](C)C(=O)Nc3ncc(CC)s3)c2)c(F)n1 [Compound 31, (S)-N-(5-(3-(1-((5-ethylthiazol-2-yl)amino)-1-oxopropan-2-yl)phenyl)-6-fluoropyridin-2-yl)acrylamide] | 98 |
| – | – | C=CC(=O)Nc1ccc(-c2cccc([C@H](C)C(=O)Nc3ncc(C#N)s3)c2)nn1 [Compound 32, (S)-N-(6-(3-(1-((5-cyanothiazol-2-yl)amino)-1-oxopropan-2-yl)phenyl)pyridazin-3-yl)acrylamide] | 100 |
| – | – | C=CC(=O)Nc1ncc(-c2cccc([C@H](C)C(=O)Nc3ncc(C#N)s3)c2)cc1F [Compound 33, (S)-N-(5-(3-(1-((5-cyanothiazol-2-yl)amino)-1-oxopropan-2-yl)phenyl)-3-fluoropyridin-2-yl)acrylamide] | 100 |
| – | – | C=CC(=O)Nc1ncc(-c2cccc([C@H](C)C(=O)Nc3ncc(C#N)s3)c2)nc1C [Compound 34, (S)-N-(5-(3-(1-((5-cyanothiazol-2-yl)amino)-1-oxopropan-2-yl)phenyl)-3-methylpyrazin-2-yl)acrylamide] | 80 |
| – | – | C=CC(=O)Nc1ccc(-c2cccc([C@H](C)C(=O)Nc3ncc(C(C)C)s3)c2)cn1 [Compound 35, (S)-N-(5-(3-(1-((5-isopropylthiazol-2-yl)amino)-1-oxopropan-2-yl)phenyl)pyridin-2-yl)acrylamide] | 98 |
| – | – | C=CC(=O)Nc1cnc(-c2cccc([C@H](C)C(=O)Nc3ncc(C(C)C)s3)c2)cn1 [Compound 36, (S)-N-(5-(3-(1-((5-isopropylthiazol-2-yl)amino)-1-oxopropan-2-yl)phenyl)pyrazin-2-yl)acrylamide] | 100 |
| – | – | C=CC(=O)Nc1ccc(-c2cccc([C@H](C)C(=O)Nc3ncc(C(F)(F)F)s3)c2)cn1 [Compound 38, (S)-N-(5-(3-(1-oxo-1-((5-(trifluoromethyl)thiazol-2-yl)amino)propan-2-yl)phenyl)pyridin-2-yl)acrylamide] | 98 |

| IC50 [1] [nM] | pIC50 (MV-4-11 cells) | Compound | inhibition at 0.1 µM (MV-4-11 cells) [%] |
| --- | --- | --- | --- |
| – | 7.52 | C=CC(=O)Nc1ccc(-c2cccc([C@H](C)C(=O)Nc3ncc(C(F)(F)F)s3)c2)nn1 [Compound 39, (S)-N-(6-(3-(1-oxo-1-((5-(trifluoromethyl)thiazol-2-yl)amino)propan-2-yl)phenyl)pyridazin-3-yl)acrylamide] | 100 |
| – | 7.56 | C=CC(=O)Nc1ccc(-c2cccc([C@H](C)C(=O)Nc3ncc(C(C)C)s3)c2)nn1 [Compound 40, (S)-N-(6-(3-(1-((5-isopropylthiazol-2-yl)amino)-1-oxopropan-2-yl)phenyl)pyridazin-3-yl)acrylamide] | 100 |
| – | – | C=CC(=O)Nc1ccc(-c2cncc(C(C)C(=O)Nc3ncc(C#N)s3)c2)cn1 (stereo not shown) [Compound 41, N-(5′-(1-((5-cyanothiazol-2-yl)amino)-1-oxopropan-2-yl)-[3,3′-bipyridin]-6-yl)acrylamide] | 100 |
| – | – | C=CC(=O)Nc1ccc(-c2cc(C(C)C(=O)Nc3ncc(C#N)s3)ccn2)cn1 (stereo not shown) [Compound 42, N-(4-(1-((5-cyanothiazol-2-yl)amino)-1-oxopropan-2-yl)-[2,3′-bipyridin]-6′-yl)acrylamide] | 100 |
| – | 7.61 | C=CC(=O)Nc1cnc(-c2cncc(C(C)C(=O)Nc3ncc(C4CC4)s3)c2)cn1 (stereo not shown) [Compound 43, N-(5-(5-(1-((5-cyclopropylthiazol-2-yl)amino)-1-oxopropan-2-yl)pyridin-3-yl)pyrazin-2-yl)acrylamide] | 100 |
| – | 7.26 | C=CC(=O)Nc1cnc(-c2cncc(C(C)C(=O)Nc3ncc(C#N)s3)c2)cn1 (stereo not shown) [Compound 44, N-(5-(5-(1-((5-cyanothiazol-2-yl)amino)-1-oxopropan-2-yl)pyridin-3-yl)pyrazin-2-yl)acrylamide] | 100 |
| – | 8.04 | C=CC(=O)Nc1cnc(-c2cncc(C(C)C(=O)Nc3ncc(CC)s3)c2)cn1 (stereo not shown) [Compound 46, N-(5-(5-(1-((5-ethylthiazol-2-yl)amino)-1-oxopropan-2-yl)pyridin-3-yl)pyrazin-2-yl)acrylamide] | 100 |
| – | 7.91 | C=CC(=O)Nc1cnc(-c2cncc(C(C)C(=O)Nc3ncc(C(C)C)s3)c2)cn1 (stereo not shown) [Compound 47, N-(5-(5-(1-((5-isopropylthiazol-2-yl)amino)-1-oxopropan-2-yl)pyridin-3-yl)pyrazin-2-yl)acrylamide] | 100 |
| – | – | C=CC(=O)Nc1cnc(-c2cncc(C(C)C(=O)Nc3ncc(C(C)=O)s3)c2)cn1 (stereo not shown) [Compound 48, N-(5-(5-(1-((5-acetylthiazol-2-yl)amino)-1-oxopropan-2-yl)pyridin-3-yl)pyrazin-2-yl)acrylamide] | 100 |
| – | 7.73 | C=CC(=O)Nc1ccc(-c2cncc(C(C)C(=O)Nc3ncc(C(F)(F)F)s3)c2)nn1 (stereo not shown) [Compound 49, N-(6-(5-(1-oxo-1-((5-(trifluoromethyl)thiazol-2-yl)amino)propan-2-yl)pyridin-3-yl)pyridazin-3-yl)acrylamide] | 100 |
| – | 7.76 | C=CC(=O)Nc1ccc(-c2cc(C(C)C(=O)Nc3ncc(C4CC4)s3)ccn2)cn1 (stereo not shown) [Compound 50, N-(4-(1-((5-cyclopropylthiazol-2-yl)amino)-1-oxopropan-2-yl)-[2,3′-bipyridin]-6′-yl)acrylamide] | 100 |
| – | 8.04 | C=CC(=O)Nc1cnc(-c2cncc(C(C)C(=O)Nc3ncc(Cl)s3)c2)cn1 (stereo not shown) [Compound 61, N-(5-(5-(1-((5-chlorothiazol-2-yl)amino)-1-oxopropan-2-yl)pyridin-3-yl)pyrazin-2-yl)acrylamide] | – |
| – | 7.64 | C=CC(=O)Nc1cnc(-c2cncc(C(C)C(=O)Nc3ncc(OC)s3)c2)cn1 (stereo not shown) [Compound 66, N-(5-(5-(1-((5-methoxythiazol-2-yl)amino)-1-oxopropan-2-yl)pyridin-3-yl)pyrazin-2-yl)acrylamide] | – |
| – | 8.49 | C=CC(=O)Nc1cnc(-c2cncc(C(C)C(=O)Nc3ncc(SC)s3)c2)cn1 (stereo not shown) [Compound 71, N-(5-(5-(1-((5-(methylthio)thiazol-2-yl)amino)-1-oxopropan-2-yl)pyridin-3-yl)pyrazin-2-yl)acrylamide] | – |
| – | 7.78 | C=CC(=O)Nc1ccc(-c2csc(C(C)C(=O)Nc3ncc(CC)s3)c2)cn1 (stereo not shown) [Compound 77, N-(5-(5-(1-((5-ethylthiazol-2-yl)amino)-1-oxopropan-2-yl)thiophen-3-yl)pyridin-2-yl)acrylamide] | – |
